{"source": "patent US9623065B2", "about": "“Kind of polygonum capitatum extract, its application and a preparation containing the polygonum capitatum extract” (Zhejiang Sanzheng Biotechnology Co., Ltd., priority 2013, dated 2017)", "key": {"[1]": {"system": "alloxan hyperglycemia model mice", "test": "Blood glucose of alloxan hyperglycemia model mice, comparison of extraction methods (Test Case 4)", "type": "in vivo, KM mice", "details": "dose 0.5 mg, fasting", "protocol": "Take 460 KM mice, with a weight of (20±2) g, half male and half female, let them to adapt to the environment for 7 days. Randomly select 6 male mice and 6 female mice as the blank control group, keep them fasted but water is supplied to them for 18 hours, use the physiological saline to prepare the 1.1% alloxan, and store it in an ice water bath. Carry out the intraperitoneal injection according to the ratio of 110 mg/kg, the control group is injected with the isodose physiological saline, let them eat after 1 h recovery. Use the same modeling method in the second day. 3 days later (72 h, normal diet), then fasting 12 hours, and then cut their tails to take a few drops of blood, and then fasting blood glucose is measured with glucose oxidase method, the mice with the blood glucose value greater than 11.1 mmol/L are the mice that successfully modeled.\nAmong the 460 KM mice, 12 of them belong to the blank control group, the remaining mice are used to modeling. After the modeling the mice with the blood glucose values measured greater than 11.1 mmol/L. In the design process each experimental group has 12 mice.\nTake the model mice, randomly divide then into 16 groups, namely the water extraction (high, medium and low) dose group, the alcohol extraction (high, medium and low) dose group, the water and alcohol extraction (high, medium and low) dose group, the modeling group, positive group and blank control group (normal mice), please refer to Table 1.\nUse surgical scissors to cut 2-3 mm of a mouse tail, press the tail to take a few drops of blood and place in the EP tube, first add 12 μL 15 g/L bipotassium EDTA solution, high speed centrifuge it (10000 r/min) for 5 min. Wait till the blood is stratified, take the upper layer serum 10 μL, plus 30 μL physiological saline, shake it evenly; and take 10 μL the dilute serum and put into a EP tube, add 1 mL glucose (Glu) oxidase, shake it evenly, keep at 37° C. for 15 min, the sample (U) is to be measured. Then take the physiological saline and calibrator (c) 10 μL respectively, add 1 mL glucose oxidase, shake evenly, keep at 37° C. for 15 min, determine the absorbance (A) with 505 nm wavelength after adjusting the blank tube to zero. […]\n(§1) This experiment adopts the GOD-POD method for determination of serum glucose concentration, the principle of this method is POD in serum glucose is oxidized into D-gluconic acid in the presence of GOD, and generate H2O2; the latter and 4-amino antipyrine and phenol form red benzophenone imine under the effect of peroxidase (POD) benzophenone imine, the depth of the color of the ketone compounds is directly proportional to the content of glucose. Determine the absorbance values of the standard tube and the sample tube respectively, and then calculate the content of glucose."}, "[2]": {"system": "alloxan hyperglycemia model mice", "test": "Efficacy test of tablet, oral liquid, capsule, granules in alloxan hyperglycemia model mice (Test Cases 5-8)", "type": "in vivo, KM mice", "details": "dose 0.5 mg", "protocol": "Take 80 KM mice, with a body weight of (20+2) g, half male and half female, and let them to adapt to the environment for 7 days. Randomly select 6 male mice and female mice as the blank control group, fasted and supplied with water for 18 h. Prepare 1.1% alloxan with physiological saline, and keep it in ice water bath. Carry out intraperitoneal injection according to a dose of 110 mg/kg, the mice of the control group are to be injected with physiological saline, and then fast them 12 hours, use the same modeling method in the second day. 3 days later (72 h, restore to normal diet), then fast 12 h, and then cut the tail to take a few drops of blood. The fasting blood glucose was measured with glucose oxidase method. The mice that have a blood glucose value greater than 11.1 mmol/L are mice that have been successfully modeled.\nAmong the 80 KM mice, 12 are as the blank control group, the remaining mice are used to modeling. After modeling, find the mice with the blood glucose values measured more than 11.1 mmol/L. In the experiment design process each group is set with 12 mice, the number of female mice are larger in the experimental results, so the number of female mice designed a dose is 6-8 only (8 with only statistical significance), the tails of some of the male model mice may be damaged, which is not conducive to the blood sampling in the next step, therefore it is not designed in this experimental group.\nUse surgical scissors to cut 2-3 mm of a mouse tail, press the tail to take a few drops of blood and place in the EP tube, first add 12 μL 15 g/L bi-potassium EDTA solution, high speed centrifuge it (10000 r/min) for 5 min. Wait till the blood is stratified, take the upper layer serum 10 μL, plus 30 μL physiological saline, shake it evenly; and take 10 μL the dilute serum and put into a EP tube, add 1 mL glucose (Glu) oxidase, shake evenly, keep at 37° C. for 15 min, the sample (U) is to be measured. Then take the physiological saline and calibrator (c) 10 μL respectively, add 1 mL glucose oxidase, shake it evenly, keep at 37° C. for 15 min, determine the absorbance (A) with 505 nm wavelength after adjusting the blank tube to zero. Sample Glu (mmol/L)=Au/Ac*Cc\nDetermine the fasting blood glucose values corresponding to the administration of 7 d, 14 d, 21 d and 28 d after the success of modeling (fasted but water is supplied for 12 h).\nas §1"}, "[3]": {"system": "3T3-L1 adipocyte IR model", "test": "Influence of glucose utilization on the 3T3-L1 adipocyte insulin resistance (IR) model", "type": "cell-based, mouse", "description": "3T3-L1 mouse embryonic fibroblast cells, are derived from the Institute of Life Science of Chinese Academy of Sciences. Plant the 3T3-L1 preadipocytes into the 25 cm2 cell culture plate, add 6 ml normal culture medium, keep it at culture conditions of 37° C. and 5% CO2, change liquid in the next day. Pass or store it in freezing conditions after the 80% cell fused.\nInoculate the 3T3-L1 preadipocytes at the density of 5×10^3 in a 24-hole culture plate, wait until the cells grow to contact inhibition, replace the cell culture medium with differentiation liquid A (0.5 mmol/L IBMX, 0.1 umol/L DEX, 10 mg/L INS) and culture them for 48 h, then replace with the induction differentiation liquid (10 mg/L) to continuously culture for 48 h B, change the normal culture medium to continue culturing, and change the liquid once every 2 days, 90% of the above induced differentiation cells will have a mature phenotype after 6-8 days.\nAfter counting the 3T3-L1 cells in logarithmic growth phase, inoculate them at the density of 5*10^3 each hole onto 24-hole culture plate, then put the culture plate into the CO2 incubator, under the conditions of a temperature of 37° C., 5% CO2 and saturated humidity, culture them to growth inhibition, induction differentiation to mature adipocytes. Add the following processing factors: • The control group shall be continued with their normal culture medium (DMEM high glucose culture liquid containing 10% FBS) • The model group shall be given 1 umol DEX normal culture medium; • Other cells shall be used in each drug group experiment\nAfter counting the 3T3-L1 cell in logarithmic growth phase, inoculate each hole with density of 5×10^3 cells in 24-hole culture plate. According to the IR models preparation method of 2.3, divide the mature 3T3-L1 adipocytes into a normal culture group and model group, the model group can also be divided into a model control group and each drug group. The model group shall be given 1 umol DEX to react for 48 h. After the models are built, administer the drug as per the experimental groups and the concentration of drug, in 3 parallel plates. In 24 h, 48 h the cell morphologies shall be observed and take the supernatant to be tested on the semi automatic biochemical instrument, determine the glucose (GLU) content in the culture solution according to the descriptions of the kit."}}}
{"smiles": "C[C@H]1O[C@H](O[C@H]2[C@H](O)[C@@H](O)[C@@H](O[C@H]3[C@H](O)[C@@H](O)C(O)O[C@@H]3CO)O[C@@H]2CO)[C@H](O)[C@@H](O)[C@@H]1N[C@H]1C=C(CO)[C@@H](O)[C@H](O)[C@H]1O", "note": "(stereo partly shown) [Acarbose]", "values": [{"measurement": "Blood glucose level 7 d", "setting": "[1]; 7 d", "value": "19.23 ± 7.54", "unit": "mmol/L"}, {"measurement": "Blood glucose level 14 d", "setting": "[1]; 14 d", "value": "18.00 ± 6.99", "unit": "mmol/L"}, {"measurement": "Blood glucose level 21 d", "setting": "[1]; 21 d", "value": "19.99 ± 6.69", "unit": "mmol/L"}, {"measurement": "Blood glucose level 28 d", "setting": "[1]; 28 d", "value": "22.81 ± 7.72", "unit": "mmol/L"}, {"measurement": "Blood glucose level 7 d", "setting": "[2]; Table 8", "value": "19.23 ± 7.54", "unit": "mmol/L"}, {"measurement": "Blood glucose level 14 d", "setting": "[2]; Table 8", "value": "18.00 ± 6.99", "unit": "mmol/L"}, {"measurement": "Blood glucose level 21 d", "setting": "[2]; Table 8", "value": "19.99 ± 6.69", "unit": "mmol/L"}, {"measurement": "Blood glucose level 28 d", "setting": "[2]; Table 8", "value": "22.81 ± 7.72", "unit": "mmol/L"}, {"measurement": "Blood glucose level 7 d", "setting": "[2]; Table 9", "value": "19.23 ± 7.54", "unit": "mmol/L"}, {"measurement": "Blood glucose level 14 d", "setting": "[2]; Table 9", "value": "18.00 ± 6.99", "unit": "mmol/L"}, {"measurement": "Blood glucose level 21 d", "setting": "[2]; Table 9", "value": "19.99 ± 6.69", "unit": "mmol/L"}, {"measurement": "Blood glucose level 28 d", "setting": "[2]; Table 9", "value": "22.81 ± 7.72", "unit": "mmol/L"}, {"measurement": "Blood glucose level 7 d", "setting": "[2]; Table 10, in mmol/L", "value": "19.23 ± 7.54"}, {"measurement": "Blood glucose level 14 d", "setting": "[2]; Table 10, in mmol/L", "value": "18.00 ± 6.99"}, {"measurement": "Blood glucose level 21 d", "setting": "[2]; Table 10, in mmol/L", "value": "19.99 ± 6.69"}, {"measurement": "Blood glucose level 28 d", "setting": "[2]; Table 10, in mmol/L", "value": "22.81 ± 7.72"}, {"measurement": "Blood glucose level 7 d", "setting": "[2]; Table 11, in mmol/L", "value": "19.23 ± 7.54"}, {"measurement": "Blood glucose level 14 d", "setting": "[2]; Table 11, in mmol/L", "value": "18.00 ± 6.99"}, {"measurement": "Blood glucose level 21 d", "setting": "[2]; Table 11, in mmol/L", "value": "19.99 ± 6.69"}, {"measurement": "Blood glucose level 28 d", "setting": "[2]; Table 11, in mmol/L", "value": "22.81 ± 7.72"}]}
{"smiles": "CN(CCOc1ccc(CC2SC(=O)NC2=O)cc1)c1ccccn1", "note": "(stereo not shown) [ROG]", "values": [{"measurement": "Average 24 h GLU content", "setting": "[3]; 3.125 ug/ml, first series", "value": 22.24, "unit": "mmol/L"}, {"measurement": "Average 48 h GLU content", "setting": "[3]; 3.125 ug/ml, first series", "value": 20.46, "unit": "mmol/L"}, {"measurement": "Average 24 h GLU content", "setting": "[3]; 12.5 ug/ml, first series", "value": 22.04, "unit": "mmol/L"}, {"measurement": "Average 48 h GLU content", "setting": "[3]; 12.5 ug/ml, first series", "value": 21.67, "unit": "mmol/L"}, {"measurement": "Average 24 h GLU content", "setting": "[3]; 50 ug/ml, culture supernatant, first series (model control 23.08)", "value": 21.84, "unit": "mmol/L"}, {"measurement": "Average 48 h GLU content", "setting": "[3]; 50 ug/ml, culture supernatant, first series (model control 22.18)", "value": 20.53, "unit": "mmol/L"}, {"measurement": "Average 24 h GLU content", "setting": "[3]; 100 ug/ml, second series (model control 27.72)", "value": 25.38, "unit": "mmol/L"}, {"measurement": "Average 48 h GLU content", "setting": "[3]; 100 ug/ml, second series (model control 26.27)", "value": 24.64, "unit": "mmol/L"}]}
